US20110280940A1, “Di-Vanilloyl And Tri-Vanilloyl Derivatives For Use In Anti-Cancer Therapy” (priority 2008, published 2011)

How the values were obtained:
VM21 melanoma cells = assay: MTT colorimetric assay, overall cell growth, VM21; format: cell-based, human; conditions: Homo sapiens; MTT, 72 hours of incubation; read-out: In Vitro IC50 Growth Inhibitory Values, VM21
Procedure, shortened: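 Growth is measured as remaining living cells relative to untreated controls after 72 h at 37 °C with compound at 10^-8 to 10^-4 M. Readout is MTT formazan absorbance at 570 nm.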

DYRK1A = DYRK1A (Rattus norvegicus, UniProt Q63470); assay: Kinase activity assay, DYRK1A (GST fusion, myelin basic protein substrate); format: biochemical
Description: (§1) Buffer A: 10 mM MgCl2, 1 mM EGTA, 1 mM DTT, 25 mM Tris-HCl pH 7.5, 50 μg heparin/ml. Buffer C: 60 mM β-glycerophosphate, 15 mM p-nitrophenylphosphate, 25 mM Mops (pH 7.2), 5 mM EGTA, 15 mM MgCl2, 1 mM DTT, 1 mM sodium vanadate, 1 mM phenyl phosphate.
(§2) Kinase activities were assayed in Buffer A or C, at 30° C., at a final ATP concentration of 15 μM. Blank values were subtracted and activities expressed in % of the maximal activity, i.e. in the absence of inhibitors. Controls were performed with appropriate dilutions of DMSO.
DYRK1A (rat, recombinant, expressed in E. coli as a GST fusion protein) was purified by affinity chromatography on glutathione-agarose and assayed as described for CDK1/cyclin B using myelin basic protein (1 mg/ml) as a substrate.

CK1 = assay: Kinase activity assay, CK1; format: biochemical, porcine; conditions: 10 μM, 1% DMSO, 15 μM ATP; residual activity
Description: as §1, §2
CK1 (porcine brain, native) was assayed as described for CDK1 but using the CK1-specific peptide substrate […]pSAYSITA (Seq. ID NO 2) (Reinhardt et al., 2007, Protein Expr. & Purif. 54, 101-109), obtained from Millegen (Labege, France).

U373-MG glioma cell line = assay: Cellular imaging (quantitative videomicroscopy), global growth ratio, U373; format: cell-based; conditions: Homo sapiens, 50 μM, 72 h, read-out: Global Grow Ratio Treated/Ct (GGR T/Ct) determined by Video Quantitative microscopy, U373
Description: (§3) As the MTT test is based on the mitochondria functions, we also investigated the effects of the di- and tri-vanilloyl derivatives according to the invention on cell proliferation, migration and morphology by means of a cellular imaging approach (Debeir et al., Cytometry 60:29-40, 2004; Debeir et al., IEEE Trans Med Imaging 24:697-711, 2005) either in the human U373-MG glioma cell line, which is apoptosis-resistant but autophagy-sensitive (Lefranc F et al., Neurosurgery 2008) and in the human A549 non-small-cell-lung cancer cell line, which is apoptosis-resistant and autophagy-resistant (Mijatovic T et al., Neoplasia 2006, May; 8(5):402-12).
(§4) Investigations have also been performed in human normal fibroblasts (WS1 and WI38—see Tables 4 and 5). Cellular imaging relied on the use of computer-assisted phase-contrast microscopy making possible to film the behaviour of living cells in culture dishes for several days.
(§5) Cells were seeded in a 25-cm^2 flask at a low density, treated or not with the vanilloyl-esters invention (at a concentration of 50 μM) and filmed thereafter for a period of 72 h. The experiment was conducted in quadruplicates (in duplicates for DLT-95 compounds).
(§6) The behaviour of the cells, in terms of morphology, growth and death were thus investigated. The effect on the overall growth was measured by counting the number of cells on the first (0 h) and the last image (72 h) of each film. The global growth ratio (GGR) was then deduced by dividing the number of cells on the last image by the number of cells on the first image. The ratio GGRtreated cells/GGRcontrol cells, was further calculated thereby obtaining a value that describes the effect of compounds of the present invention on the overall cell growth. The methodology is fully described and validated in Debeir et al., 2008, Exp Cell Res 314:2985-2998 and Mathieu et al., 2009, J Cell Mol Med, Feb. 20, 2009.
(§7) Illustrative pictures (time=0 h and 72 h) of glioblastoma and normal fibroblast cell line left untreated or treated with poly-vanillic compounds according to the invention (50 μM) are provided in FIG. 1 (U373 glioblastoma) and FIG. 2 (normal fibroblasts). The GGR parameter analyses confirmed the marked impairment of cell growth in both cancer cell lines of the poly-vanillic compounds according to the invention (Table 5).

[1] = system: A549 non-small-cell-lung cancer cell line; assay: Cellular imaging (quantitative videomicroscopy), global growth ratio, A549; format: cell-based; conditions: Homo sapiens, 72 h, read-out: Global Grow Ratio Treated/Ct (GGR T/Ct) determined by Video Quantitative microscopy, A549
Description: as §3, §4, §5, §6, §7

CDK5/p25 = biological target: T1, CDK5/p25 (Homo sapiens, UniProt Q00535); assay: Kinase activity assay, CDK5; format: biochemical; conditions: 10 μM, 1% DMSO, 15 μM ATP; residual activity
T1 construct: made in house
Description: as §1, §2
(§8) CDK1/cyclin B (M phase starfish oocytes, native), CDK2/cyclin A, CDK2/cyclin E, CDK5/p25 and CDK7/cyclin H (human, recombinant) were prepared as previously described (Leclerc et al., 2001, J. Biol. Chem. 2001, 276, 251-260; Bach et al., 2005, J Biol Chem 280: 31208-31219). Their kinase activity was assayed in buffer C, with 1 mg histone H1/ml, in the presence of 15 μM [gamma-^33P] ATP (3,000 Ci/mmol; 10 mCi/ml) in a final volume of 30 μl. After 30 min incubation at 30° C., 25 μl aliquots of supernatant were spotted onto 2.5×3 cm pieces of Whatman P81 phosphocellulose paper, and, 20 sec later, the filters were washed five times (for at least 5 min each time) in a solution of 10 ml phosphoric acid/liter of water. The wet filters were counted in the presence of 1 ml ACS (Amersham) scintillation fluid.

Erk2 = Erk2 (Rattus norvegicus, UniProt P63086); assay: Kinase activity assay, Erk2; format: biochemical; conditions: 10 μM, 1% DMSO, 15 μM ATP; residual activity
Description: as §1, §2
Erk2 (rat, recombinant) was assayed as described for CDK1 but using the specific substrate Ets1 (amino acids 1-138) in buffer A.

CDK2/cyclin A = biological target: T2, CDK2/cyclin A (Homo sapiens, UniProt P24941); assay: Kinase activity assay, CDK2A; format: biochemical; conditions: 10 μM, 1% DMSO, 15 μM ATP; residual activity
T2 construct: made in house
Description: as §1, §2, §8

GSK-3 = assay: Kinase activity assay, GSK3; format: biochemical, porcine; conditions: 10 μM, 1% DMSO, 15 μM ATP; residual activity
Description: as §1, §2
GSK-3 (porcine brain, native) was assayed, as described for CDK1 but in Buffer A and using a GSK-3 specific substrate (GS-1: […]pEDEEE) (Seq. ID NO 1) (pS stands for phosphorylated serine) (Primot et al., 2000, Protein Expr. & Purif. 20 (3), 394-404). GS-1 was synthesized by Millegen (Labege, France).

pfGSK3 = pfGSK3 (Plasmodium falciparum, UniProt O77344); assay: Kinase activity assay, pfGSK3; format: biochemical; conditions: 10 μM, 1% DMSO, 15 μM ATP; residual activity
Description: as §1, §2

VM48 melanoma cells = assay: MTT colorimetric assay, overall cell growth, VM48; format: cell-based, human; conditions: Homo sapiens; MTT, 72 hours of incubation; read-out: In Vitro IC50 Growth Inhibitory Values, VM48
[2] = system: cancer cells versus normal fibroblasts; assay: Anti-proliferative, anti-migratory and anti-kinase effects, cancer cells versus normal fibroblasts; format: cell-based, human; conditions: anti-proliferative
Description: (§9) The compounds of the invention were subsequently evaluated for their 1) anti-proliferative effect (by means of the colorimetric MTT assay), 2) pro-autophagic and pro-apoptotic effect (by means of flow cytometry analyses), and 3) anti-migratory effect (by means of quantitative videomicroscopy), in the following human cancer cell-lines: a) U373, T98G and Hs683 glioblastoma cells, b) VM21 and VM48 melanoma cells, c) PC-3 prostate cancer cells, d) MCF-7 breast cancer cells, e) LoVo colon cancer cells, f) OE21 oesophageal cancer cells, and g) A549 NSCLC cancer cells, as well as in human WS1 and WI38 normal fibroblasts (i.e. non-cancer cells).
The best current hits, DLT12 and DLT4, display anti-proliferative, anti-migratory effects and anti-kinase effects which are ˜10 times more pronounced in cancer cells than in normal fibroblasts. […] FIG. 1 illustrates the data obtained with respect to the human U373 glioblastoma model, while FIG. 2 illustrates the data obtained in human normal fibroblasts. […] DLT-95 and its derivatives DLT-95-F and DLT-95-Cl were also shown to have a significant effect on the proliferation 7 different human cancer cell-lines.

WS1 normal fibroblasts = assay: Cellular imaging (quantitative videomicroscopy), global growth ratio, WS1; format: cell-based, human; conditions: 50 μM, 72 h
Description: as §3
(§10) Investigations have also been performed in human normal fibroblasts (WS1 and WI38—see Tables 4 and 5). Cellular imaging relied on the use of computer-assisted phase-contrast microscopy making possible to film the behaviour of living cells in culture dishes for several days. […]
(§11) The behaviour of the cells, in terms of morphology, growth and death were thus investigated. The effect on the overall growth was measured by counting the number of cells on the first (0 h) and the last image (72 h) of each film. […] The ratio GGRtreated cells/GGRcontrol cells, was further calculated thereby obtaining a value that describes the effect of compounds of the present invention on the overall cell growth. […]

cancer cell lines = assay: Flow cytometry analyses of pro-autophagic and pro-apoptotic effects; format: cell-based, human; conditions: cancer cell lines studied
Description: as §9

WI38 normal fibroblasts = assay: Cellular imaging (quantitative videomicroscopy), global growth ratio, WI38; format: cell-based, human; conditions: 50 μM, 72 h
Description: as §3, §10, §11

pfGSK3, sequence (O77344 1-440): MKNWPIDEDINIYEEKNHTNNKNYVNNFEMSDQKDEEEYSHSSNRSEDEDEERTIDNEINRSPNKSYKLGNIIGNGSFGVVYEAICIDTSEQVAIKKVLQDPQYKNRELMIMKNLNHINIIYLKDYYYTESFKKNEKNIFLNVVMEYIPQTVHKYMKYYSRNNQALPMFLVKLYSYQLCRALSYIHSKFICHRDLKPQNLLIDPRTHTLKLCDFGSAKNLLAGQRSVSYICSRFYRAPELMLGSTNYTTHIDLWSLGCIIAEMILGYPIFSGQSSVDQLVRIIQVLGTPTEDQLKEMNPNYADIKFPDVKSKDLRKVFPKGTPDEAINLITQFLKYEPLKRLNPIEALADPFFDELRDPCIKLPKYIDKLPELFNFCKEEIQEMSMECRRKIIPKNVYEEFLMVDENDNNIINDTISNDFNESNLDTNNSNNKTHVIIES
T1 sequence (Q00535 whole entry): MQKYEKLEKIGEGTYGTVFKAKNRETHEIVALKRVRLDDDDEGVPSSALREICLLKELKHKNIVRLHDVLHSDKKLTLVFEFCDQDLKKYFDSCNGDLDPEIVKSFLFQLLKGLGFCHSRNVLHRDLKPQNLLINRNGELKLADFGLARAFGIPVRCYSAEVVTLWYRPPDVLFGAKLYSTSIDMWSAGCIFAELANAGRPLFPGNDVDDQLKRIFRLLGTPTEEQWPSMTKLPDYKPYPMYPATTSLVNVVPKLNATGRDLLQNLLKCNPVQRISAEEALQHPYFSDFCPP
T1 sequence (Q15078 99-307 partner limits assumed): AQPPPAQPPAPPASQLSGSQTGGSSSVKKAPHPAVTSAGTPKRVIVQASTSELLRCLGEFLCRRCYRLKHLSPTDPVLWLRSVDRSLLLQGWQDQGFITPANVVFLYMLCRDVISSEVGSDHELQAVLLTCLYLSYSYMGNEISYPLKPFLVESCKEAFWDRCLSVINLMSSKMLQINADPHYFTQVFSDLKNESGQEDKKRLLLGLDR
Erk2, sequence (P63086 whole entry): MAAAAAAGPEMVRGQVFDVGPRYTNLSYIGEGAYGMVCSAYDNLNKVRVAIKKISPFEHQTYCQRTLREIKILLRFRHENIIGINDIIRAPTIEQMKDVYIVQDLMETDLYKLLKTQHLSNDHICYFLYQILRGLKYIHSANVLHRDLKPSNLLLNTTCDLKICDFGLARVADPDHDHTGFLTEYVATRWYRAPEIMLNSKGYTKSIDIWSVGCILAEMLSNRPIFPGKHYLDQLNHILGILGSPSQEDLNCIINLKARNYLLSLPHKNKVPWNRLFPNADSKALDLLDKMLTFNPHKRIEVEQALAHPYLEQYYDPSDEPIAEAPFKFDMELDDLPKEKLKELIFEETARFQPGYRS

Compound | IC50 (VM21 melanoma cells) | inhibition at 10 µM (DYRK1A) | % ENZYMATIC ACTIVITY, Dyrk1A (DYRK1A; 10 μM, 1% DMSO, 15 μM ATP, residual activity) | % ENZYMATIC ACTIVITY, Ckone (CK1) | activity at 50 µM (U373-MG glioma cell line) | activity at 50 µM [1] | % ENZYMATIC ACTIVITY, CDK5 (CDK5/p25) | % ENZYMATIC ACTIVITY, Erk2 (Erk2) | % ENZYMATIC ACTIVITY, CDK2A (CDK2/cyclin A) | % ENZYMATIC ACTIVITY, GSK3 (GSK-3) | % ENZYMATIC ACTIVITY, pfGSK3 (pfGSK3) | IC50 (VM48 melanoma cells) | effects more pronounced in cancer cells than in normal fibroblasts [2] | Global Grow Ratio Treated/Ct (GGR T/Ct) determined by Video Quantitative microscopy, WS1 (WS1 normal fibroblasts) | pro-autophagic or pro-apoptotic effects (cancer cell lines) | Global Grow Ratio Treated/Ct (GGR T/Ct) determined by Video Quantitative microscopy, WI38 (WI38 normal fibroblasts)
COc1cc(C(=O)OC2CCCC(OC(=O)c3ccc(O)c(OC)c3)C2)ccc1O (mixture of isomers) [DLT5, cis/trans-cyclohexane-1,3-diyl bis-(4-hydroxy-3-methoxybenzoate)] | 47 µM | 26% | 74% | 73% | 20% | 10% | 95% | 92% | 100% | 81% | 89% | 47 µM |  |  |  | 
COc1cc(C(=O)O[C@@H]2CCCC[C@H]2OC(=O)c2ccc(O)c(OC)c2)ccc1O (racemic) [DLT4, trans-cyclohexane-1,2-diyl bis-(4-hydroxy-3-methoxybenzoate)] |  |  |  |  | 20% | 20% |  |  |  |  |  |  | ~10 times | 1.0 | does not induce pro-autophagic or pro-apoptotic effects | 0.9
